From ChEMBL document CHEMBL4251615, “Discovery of anilino-furo[2,3-d]pyrimidine derivatives as dual inhibitors of EGFR/HER2 tyrosine kinase and their anticancer activity” (Eur J Med Chem, 2018)

Experiments:
[1] = molecular target: Epidermal growth factor receptor (Homo sapiens, UniProt P00533); test: Inhibition of recombinant human C-terminal His/N-terminal GST-tagged EGFR (668 to 1210 residues) expressed in baculovirus infected Sf9 cells at 10 uM using biotin-labeled poly[Glu:Tyr] (4:1) as substrate after 30 mins by Kinase-Glo plus luminescence assay relative to control
Sequence of Epidermal growth factor receptor (P00533 whole entry, the tested form may be a part): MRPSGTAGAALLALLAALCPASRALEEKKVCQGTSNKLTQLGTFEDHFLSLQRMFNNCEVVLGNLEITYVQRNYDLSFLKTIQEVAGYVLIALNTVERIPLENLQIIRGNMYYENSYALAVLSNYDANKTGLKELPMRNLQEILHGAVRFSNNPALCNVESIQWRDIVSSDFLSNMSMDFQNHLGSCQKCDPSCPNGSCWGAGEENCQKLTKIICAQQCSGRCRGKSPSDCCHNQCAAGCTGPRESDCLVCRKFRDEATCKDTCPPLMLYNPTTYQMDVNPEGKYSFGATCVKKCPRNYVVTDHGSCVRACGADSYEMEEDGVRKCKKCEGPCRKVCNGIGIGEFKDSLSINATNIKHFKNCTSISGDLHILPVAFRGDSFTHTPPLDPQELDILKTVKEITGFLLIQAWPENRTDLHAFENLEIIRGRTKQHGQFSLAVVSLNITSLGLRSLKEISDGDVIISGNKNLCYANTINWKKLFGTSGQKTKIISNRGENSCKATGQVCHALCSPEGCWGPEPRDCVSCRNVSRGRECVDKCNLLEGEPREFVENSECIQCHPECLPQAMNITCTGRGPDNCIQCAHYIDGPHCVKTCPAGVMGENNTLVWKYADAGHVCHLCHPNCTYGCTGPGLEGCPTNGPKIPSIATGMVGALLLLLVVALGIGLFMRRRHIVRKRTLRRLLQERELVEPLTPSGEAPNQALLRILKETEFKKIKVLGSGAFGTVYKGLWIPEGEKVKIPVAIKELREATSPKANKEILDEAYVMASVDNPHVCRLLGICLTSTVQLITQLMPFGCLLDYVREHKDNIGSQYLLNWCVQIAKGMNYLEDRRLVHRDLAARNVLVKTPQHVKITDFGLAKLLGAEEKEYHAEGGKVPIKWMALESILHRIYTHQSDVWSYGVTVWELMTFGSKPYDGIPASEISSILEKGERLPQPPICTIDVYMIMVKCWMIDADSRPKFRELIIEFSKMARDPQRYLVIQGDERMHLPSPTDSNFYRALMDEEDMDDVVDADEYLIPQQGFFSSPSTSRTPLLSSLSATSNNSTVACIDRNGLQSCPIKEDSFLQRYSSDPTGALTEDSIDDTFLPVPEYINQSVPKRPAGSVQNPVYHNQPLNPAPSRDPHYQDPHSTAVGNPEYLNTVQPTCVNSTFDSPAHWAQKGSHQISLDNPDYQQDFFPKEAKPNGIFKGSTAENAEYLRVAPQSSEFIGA

HL-60(TB) = test: Growth inhibition of human HL-60(TB) cells assessed as cell growth at 10 uM incubated for 48 hrs by sulforhodamine B assay relative to control; type: functional; settings: HL-60, 48 h, read-out: Activity
K562 = test: Growth inhibition of human K562 cells assessed as cell growth at 10 uM incubated for 48 hrs by sulforhodamine B assay relative to control; type: functional; settings: K562, 48 h, read-out: Activity
MOLT-4 = test: Growth inhibition of human MOLT4 cells assessed as cell growth at 10 uM incubated for 48 hrs by sulforhodamine B assay relative to control; type: functional; settings: MOLT-4, 48 h, read-out: Activity
RPMI-8226 = test: Growth inhibition of human RPMI8226 cells assessed as cell growth at 10 uM incubated for 48 hrs by sulforhodamine B assay relative to control; type: functional; settings: RPMI-8226, 48 h, read-out: Activity
SR = test: Growth inhibition of human SR cells assessed as cell growth at 10 uM incubated for 48 hrs by sulforhodamine B assay relative to control; type: functional; settings: read-out: Activity
A549 = test: Growth inhibition of human A549/ATCC cells assessed as cell growth at 10 uM incubated for 48 hrs by sulforhodamine B assay relative to control; type: functional; settings: A549, 48 h, read-out: Activity
EKVX = test: Growth inhibition of human EKVX cells assessed as cell growth at 10 uM incubated for 48 hrs by sulforhodamine B assay relative to control; type: functional; settings: read-out: Activity
NCI-H23 = test: Growth inhibition of human NCI-H23 cells assessed as cell growth at 10 uM incubated for 48 hrs by sulforhodamine B assay relative to control; type: functional; settings: NCI-H23, 48 h, read-out: Activity
NCI-H322M = test: Growth inhibition of human NCI-H322M cells assessed as cell growth at 10 uM incubated for 48 hrs by sulforhodamine B assay relative to control; type: functional; settings: read-out: Activity
HCC 2998 = test: Growth inhibition of human HCC2998 cells assessed as cell growth at 10 uM incubated for 48 hrs by sulforhodamine B assay relative to control; type: functional; settings: HCC 2998, 48 h, read-out: Activity
HCT-116 = test: Growth inhibition of human HCT116 cells assessed as cell growth at 10 uM incubated for 48 hrs by sulforhodamine B assay relative to control; type: functional; settings: HCT-116, 48 h, read-out: Activity
HT-29 = test: Growth inhibition of human HT-29 cells assessed as cell growth at 10 uM incubated for 48 hrs by sulforhodamine B assay relative to control; type: functional; settings: HT-29, 48 h, read-out: Activity
SW-620 = test: Growth inhibition of human SW620 cells assessed as cell growth at 10 uM incubated for 48 hrs by sulforhodamine B assay relative to control; type: functional; settings: SW-620, 48 h, read-out: Activity
SF-295 = test: Growth inhibition of human SF295 cells assessed as cell growth at 10 uM incubated for 48 hrs by sulforhodamine B assay relative to control; type: functional; settings: SF-295, 48 h, read-out: Activity
SNB-19 = test: Growth inhibition of human SNB19 cells assessed as cell growth at 10 uM incubated for 48 hrs by sulforhodamine B assay relative to control; type: functional; settings: SNB-19, 48 h, read-out: Activity
M14 = test: Growth inhibition of human M14 cells assessed as cell growth at 10 uM incubated for 48 hrs by sulforhodamine B assay relative to control; type: functional; settings: M14, 48 h, read-out: Activity
MDA-MB-435 = test: Growth inhibition of human MDA-MB-435 cells assessed as cell growth at 10 uM incubated for 48 hrs by sulforhodamine B assay relative to control; type: functional; settings: MDA-MB-435, 48 h, read-out: Activity
SK-MEL-2 = test: Growth inhibition of human SK-MEL-2 cells assessed as cell growth at 10 uM incubated for 48 hrs by sulforhodamine B assay relative to control; type: functional; settings: SK-MEL-2, 48 h, read-out: Activity
SK-MEL-5 = test: Growth inhibition of human SK-MEL-5 cells assessed as cell growth at 10 uM incubated for 48 hrs by sulforhodamine B assay relative to control; type: functional; settings: SK-MEL-5, 48 h, read-out: Activity
UACC-62 = test: Growth inhibition of human UACC62 cells assessed as cell growth at 10 uM incubated for 48 hrs by sulforhodamine B assay relative to control; type: functional; settings: UACC-62, 48 h, read-out: Activity
OVCAR-5 = test: Growth inhibition of human OVCAR5 cells assessed as cell growth at 10 uM incubated for 48 hrs by sulforhodamine B assay relative to control; type: functional; settings: OVCAR-5, 48 h, read-out: Activity
OVCAR-8 = test: Growth inhibition of human OVCAR8 cells assessed as cell growth at 10 uM incubated for 48 hrs by sulforhodamine B assay relative to control; type: functional; settings: OVCAR-8, 48 h, read-out: Activity
NCI/ADR-RES = test: Growth inhibition of human NCI/ADR-RES cells assessed as cell growth at 10 uM incubated for 48 hrs by sulforhodamine B assay relative to control; type: functional; settings: read-out: Activity
SK-OV-3 = test: Growth inhibition of human SKOV3 cells assessed as cell growth at 10 uM incubated for 48 hrs by sulforhodamine B assay relative to control; type: functional; settings: SK-OV-3, 48 h, read-out: Activity
A498 = test: Growth inhibition of human A498 cells assessed as cell growth at 10 uM incubated for 48 hrs by sulforhodamine B assay relative to control; type: functional; settings: A498, 48 h, read-out: Activity
ACHN = test: Growth inhibition of human ACHN cells assessed as cell growth at 10 uM incubated for 48 hrs by sulforhodamine B assay relative to control; type: functional; settings: read-out: Activity
CAKI-1 = test: Growth inhibition of human Caki1 cells assessed as cell growth at 10 uM incubated for 48 hrs by sulforhodamine B assay relative to control; type: functional; settings: CAKI-1, 48 h, read-out: Activity
RXF 393 = test: Growth inhibition of human RXF393 cells assessed as cell growth at 10 uM incubated for 48 hrs by sulforhodamine B assay relative to control; type: functional; settings: RXF 393, 48 h, read-out: Activity
SN12C = test: Growth inhibition of human SN12C cells assessed as cell growth at 10 uM incubated for 48 hrs by sulforhodamine B assay relative to control; type: functional; settings: read-out: Activity
UO-31 = test: Growth inhibition of human UO31 cells assessed as cell growth at 10 uM incubated for 48 hrs by sulforhodamine B assay relative to control; type: functional; settings: UO-31, 48 h, read-out: Activity
MCF7 = test: Growth inhibition of human MCF7 cells assessed as cell growth at 10 uM incubated for 48 hrs by sulforhodamine B assay relative to control; type: functional; settings: MCF7, 48 h, read-out: Activity
Hs-578T = test: Growth inhibition of human Hs 578T cells assessed as cell growth at 10 uM incubated for 48 hrs by sulforhodamine B assay relative to control; type: functional; settings: read-out: Activity

| Compound | inhibition [1] [%] | growth at 10 µM (HL-60(TB)) [%] | growth at 10 µM (K562) [%] | growth at 10 µM (MOLT-4) [%] | growth at 10 µM (RPMI-8226) [%] | growth at 10 µM (SR) [%] | growth at 10 µM (A549) [%] | growth at 10 µM (EKVX) [%] | growth at 10 µM (NCI-H23) [%] | growth at 10 µM (NCI-H322M) [%] | growth at 10 µM (HCC 2998) [%] | growth at 10 µM (HCT-116) [%] | growth at 10 µM (HT-29) [%] | growth at 10 µM (SW-620) [%] | growth at 10 µM (SF-295) [%] | growth at 10 µM (SNB-19) [%] | growth at 10 µM (M14) [%] | growth at 10 µM (MDA-MB-435) [%] | growth at 10 µM (SK-MEL-2) [%] | growth at 10 µM (SK-MEL-5) [%] | other results |
| --- | --- | --- | --- | --- | --- | --- | --- | --- | --- | --- | --- | --- | --- | --- | --- | --- | --- | --- | --- | --- | --- |
| Cc1cccc(Nc2ncnc3oc(C)c(C(=O)NCCN4CCOCC4)c23)c1 | 30 | 92.4 | 98.3 | 111 | 89.5 | 126 | 102 | 92.6 | 92.5 | 101 | 97.1 | 117 | 104 | 98.9 | 94 | 91 | 99.8 | 101 | 106 | 96.9 | growth at 10 µM (UACC-62): 84.6%; growth at 10 µM (OVCAR-5): 81.8%; growth at 10 µM (OVCAR-8): 109%; growth at 10 µM (NCI/ADR-RES): 94.7%; growth at 10 µM (SK-OV-3): 111%; growth at 10 µM (A498): 68.9%; growth at 10 µM (ACHN): 93.6%; growth at 10 µM (CAKI-1): 90.2%; growth at 10 µM (RXF 393): 86.3%; growth at 10 µM (SN12C): 94.3%; growth at 10 µM (UO-31): 75.6%; growth at 10 µM (MCF7): 96.2%; growth at 10 µM (Hs-578T): 88.5% |
| Cc1oc2ncnc(Nc3ccccc3)c2c1C(=O)NCCO | 8 | 64.9 | 29.4 | -0.28 | 94.8 | 52.2 | 98.1 | 97.6 | 92 | 108 | 103 | 99.3 | 106 | 95.1 | 100 | 93.9 | 106 | 102 | 113 | 97.5 | growth at 10 µM (UACC-62): 86.2%; growth at 10 µM (OVCAR-5): 93.2%; growth at 10 µM (OVCAR-8): 113%; growth at 10 µM (NCI/ADR-RES): 102%; growth at 10 µM (SK-OV-3): 100%; growth at 10 µM (A498): 78.2%; growth at 10 µM (ACHN): 91.8%; growth at 10 µM (CAKI-1): 90.8%; growth at 10 µM (RXF 393): 104%; growth at 10 µM (SN12C): 93.2%; growth at 10 µM (UO-31): 87.7%; growth at 10 µM (MCF7): 98.6%; growth at 10 µM (Hs-578T): 90.5% |
| CCOC(=O)c1c(C)oc2ncnc(Nc3cccc(F)c3)c12 | 2 | 76.4 | 101 | 62.5 | 107 | 78.6 | 93 | 101 | 97.8 | 106 | 103 | 88.1 | 89.8 | 94.2 | 94.8 | 93.7 | 98.2 | 101 | 92.9 | 99 | growth at 10 µM (UACC-62): 84%; growth at 10 µM (OVCAR-5): 102%; growth at 10 µM (OVCAR-8): 105%; growth at 10 µM (NCI/ADR-RES): 96.1%; growth at 10 µM (SK-OV-3): 101%; growth at 10 µM (A498): 75.9%; growth at 10 µM (ACHN): 109%; growth at 10 µM (CAKI-1): 92%; growth at 10 µM (RXF 393): 97.6%; growth at 10 µM (SN12C): 89.1%; growth at 10 µM (UO-31): 101%; growth at 10 µM (MCF7): 95.4%; growth at 10 µM (Hs-578T): 99% |
